Activity calls are given as the source filed them. The rule behind the calls is not given here.
Experiments:
Assay type in all cases: cell-based
[1] = Inhibition of dsDNA-induced cGAS signaling pathway in human THP1-Lucia ISG cells preincubated with compound for 24 hrs followed by HT-DNA addition and measured after 24 hrs by QUANTI-Luc luciferase reagent based assay
[2] = target: T1, Protein cereblon/Cyclic GMP-AMP synthase (Homo sapiens, UniProt Q96SW2+Q8N884); assay: PROTAC activity at CRBN/cGAS in human THP-1 cells assessed as induction of cGAS degradation at 10 uM preincubated with compound for 40 hrs followed by HT-DNA stimulation and measured after 8 hrs by Western blot analysis relative to control; conditions: time 48.0 hrs
T1 sequence (Q8N884 whole entry, looked up): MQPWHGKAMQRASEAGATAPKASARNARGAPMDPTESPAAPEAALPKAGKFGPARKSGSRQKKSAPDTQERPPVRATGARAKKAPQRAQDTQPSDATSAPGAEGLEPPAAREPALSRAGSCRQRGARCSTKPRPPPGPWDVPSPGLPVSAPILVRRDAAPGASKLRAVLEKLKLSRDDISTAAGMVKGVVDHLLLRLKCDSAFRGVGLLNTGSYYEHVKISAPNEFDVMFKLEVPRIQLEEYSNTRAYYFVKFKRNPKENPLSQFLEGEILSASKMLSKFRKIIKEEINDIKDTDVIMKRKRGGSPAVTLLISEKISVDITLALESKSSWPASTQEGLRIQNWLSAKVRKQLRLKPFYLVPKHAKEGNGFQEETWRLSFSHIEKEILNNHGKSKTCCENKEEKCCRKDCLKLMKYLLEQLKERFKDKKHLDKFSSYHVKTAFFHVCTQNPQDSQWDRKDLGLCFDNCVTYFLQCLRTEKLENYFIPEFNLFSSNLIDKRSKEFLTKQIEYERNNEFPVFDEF
T1 sequence (Q96SW2 whole entry, looked up): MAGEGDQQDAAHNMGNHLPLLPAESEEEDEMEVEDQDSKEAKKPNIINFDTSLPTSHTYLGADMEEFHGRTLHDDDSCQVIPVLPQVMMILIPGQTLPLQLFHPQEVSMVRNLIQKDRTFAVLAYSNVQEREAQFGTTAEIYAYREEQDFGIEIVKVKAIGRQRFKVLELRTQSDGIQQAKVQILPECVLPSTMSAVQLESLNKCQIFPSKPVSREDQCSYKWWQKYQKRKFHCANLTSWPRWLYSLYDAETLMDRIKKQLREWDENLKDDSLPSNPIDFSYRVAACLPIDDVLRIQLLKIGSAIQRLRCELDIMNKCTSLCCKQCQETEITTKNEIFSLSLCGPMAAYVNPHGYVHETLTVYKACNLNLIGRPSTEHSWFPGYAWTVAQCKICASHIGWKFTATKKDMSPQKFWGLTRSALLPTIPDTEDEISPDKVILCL

[3] = Inhibition of dsDNA-induced cGAS signaling pathway in mouse RAW-Lucia ISG cells preincubated with compound for 24 hrs followed by HT-DNA addition and measured after 24 hrs by QUANTI-Luc luciferase reagent based assay
THP-1 = assay: Induction of cGAS degradation in human THP-1 cells at 10 uM preincubated with compound for 40 hrs followed by HT-DNA stimulation and measured after 8 hrs by Western blot analysis relative to control; conditions: time 48.0 hrs
[4] = target: T1, Protein cereblon/Cyclic GMP-AMP synthase; assay: PROTAC activity at CRBN/cGAS in human THP-1 cells assessed as induction of cGAS degradation at 10 uM incubated for 48 hrs by Western blot analysis

| SMILES | IC50 [1] | Activity [2] | IC50 [3] | Activity [4] | Activity (THP-1) |
| --- | --- | --- | --- | --- | --- |
| Cn1ccc(-c2cc(Cl)c(Cl)c3[nH]c4c(c23)CN(C(=O)CNC(=O)CCC2CCN(C(=O)COc3cccc5c3C(=O)N(C3CCC(=O)NC3=O)C5=O)CC2)CC4)n1 (centres undefined) | > 50 µM | 18.9% | > 50 µM | – | – |
| O=C1CCC(N2C(=O)c3cccc(NCCOCCOCCOCCOCCOCCC(=O)N4CCC(Cn5cc(-c6cc(Cl)c(Cl)c7[nH]c8c(c67)CN(C(=O)CO)CC8)cn5)CC4)c3C2=O)C(=O)N1 (centres undefined) | > 50 µM | 10.4% | > 50 µM | – | – |
| Cn1ccc(-c2cc(Cl)c(Cl)c3[nH]c4c(c23)CN(C(=O)CNC(=O)CCCCCCCCCCCNc2cccc3c2C(=O)N(C2CCC(=O)NC2=O)C3=O)CC4)n1 (centres undefined) | > 50 µM | 4.3% | > 50 µM | – | – |
| Cn1ccc(-c2cc(Cl)c(Cl)c3[nH]c4c(c23)CN(C(=O)CNC(=O)CCCC#Cc2ccc3c(c2)CN(C2CCC(=O)NC2=O)C3=O)CC4)n1 (centres undefined) | > 50 µM | 25.6% | > 50 µM | – | – |
| O=C1CCC(N2C(=O)c3cccc(NCCCCC(=O)N4CCC(Cn5cc(-c6cc(Cl)c(Cl)c7[nH]c8c(c67)CN(C(=O)CO)CC8)cn5)CC4)c3C2=O)C(=O)N1 (centres undefined) | > 50 µM | 10.5% | > 50 µM | – | – |
| Cn1ccc(-c2cc(Cl)c(Cl)c3[nH]c4c(c23)CN(C(=O)CNC(=O)CN2CCN(C(=O)COc3cccc5c3C(=O)N(C3CCC(=O)NC3=O)C5=O)CC2)CC4)n1 (centres undefined) | > 50 µM | 18.7% | > 50 µM | – | – |
| O=C1CCC(N2C(=O)c3cccc(NCCCCCCCC(=O)N4CCC(Cn5cc(-c6cc(Cl)c(Cl)c7[nH]c8c(c67)CN(C(=O)CO)CC8)cn5)CC4)c3C2=O)C(=O)N1 (centres undefined) | > 50 µM | 35.6% | > 50 µM | – | – |
| Nc1cccc2c1CN(C1CCC(=O)NC1=O)C2=O (centres undefined) [LENALIDOMIDE] | > 50 µM | – | > 50 µM | – | 0.3% |
| CN1C(=O)CCC(N2Cc3c(C#CCCCC(=O)NCC(=O)N4CCc5[nH]c6c(Cl)c(Cl)cc(-c7ccn(C)n7)c6c5C4)cccc3C2=O)C1=O (centres undefined) | – | – | – | inactive | – |
| O=C1CCC(N2C(=O)c3cccc(NCCCCCCCCC(=O)N4CCC(Cn5cc(-c6cc(Cl)c(Cl)c7[nH]c8c(c67)CN(C(=O)CO)CC8)cn5)CC4)c3C2=O)C(=O)N1 (centres undefined) | > 50 µM | 23.9% | > 50 µM | – | – |
| O=C1CCC(N2C(=O)c3cccc(NCCCCCC(=O)N4CC(Cn5cc(-c6cc(Cl)c(Cl)c7[nH]c8c(c67)CN(C(=O)CO)CC8)cn5)C4)c3C2=O)C(=O)N1 (centres undefined) | > 50 µM | 36.3% | > 50 µM | – | – |
| Cn1ccc(-c2cc(Cl)c(Cl)c3[nH]c4c(c23)CN(C(=O)CNC(=O)CC2CCN(C(=O)COc3cccc5c3C(=O)N(C3CCC(=O)NC3=O)C5=O)CC2)CC4)n1 (centres undefined) | > 50 µM | 6.3% | > 50 µM | – | – |
| O=C1CCC(N2C(=O)c3cccc(NCCCC(=O)N4CCC(Cn5cc(-c6cc(Cl)c(Cl)c7[nH]c8c(c67)CN(C(=O)CO)CC8)cn5)CC4)c3C2=O)C(=O)N1 (centres undefined) | > 50 µM | 4.7% | > 50 µM | – | – |
| Cn1ccc(-c2cc(Cl)c(Cl)c3[nH]c4c(c23)CN(C(=O)CNC(=O)CCCCCCCCCNc2cccc3c2C(=O)N(C2CCC(=O)NC2=O)C3=O)CC4)n1 (centres undefined) | > 50 µM | 12.4% | > 50 µM | – | – |
| Cn1ccc(-c2cc(Cl)c(Cl)c3[nH]c4c(c23)CN(C(=O)CNC(=O)CCOCCOCCOCCOCCNc2cccc3c2C(=O)N(C2CCC(=O)NC2=O)C3=O)CC4)n1 (centres undefined) | > 50 µM | 20.5% | > 50 µM | – | – |
| O=C1CCC(N2C(=O)c3cccc(NCCOCCOCCOCCOCCOCCOCCOCCOCCC(=O)N4CCC(Cn5cc(-c6cc(Cl)c(Cl)c7[nH]c8c(c67)CN(C(=O)CO)CC8)cn5)CC4)c3C2=O)C(=O)N1 (centres undefined) | > 50 µM | 4.6% | > 50 µM | – | – |
| O=C1CCC(N2C(=O)c3cccc(NCCCCCCCCC(=O)N4CC(Cn5cc(-c6cc(Cl)c(Cl)c7[nH]c8c(c67)CN(C(=O)CO)CC8)cn5)C4)c3C2=O)C(=O)N1 (centres undefined) | > 50 µM | 21.2% | > 50 µM | – | – |
| Cn1ccc(-c2cc(Cl)c(Cl)c3[nH]c4c(c23)CN(C(=O)CNC(=O)CCN2CCN(C(=O)COc3cccc5c3C(=O)N(C3CCC(=O)NC3=O)C5=O)CC2)CC4)n1 (centres undefined) | > 50 µM | 15.1% | > 50 µM | – | – |

The next lines start with results.

| IC50 [1] | Activity [2] | IC50 [3] | Activity [4] | SMILES | Activity (THP-1) |
| --- | --- | --- | --- | --- | --- |
| 12.2 µM | 58.7% | 25.6 µM | – | Cn1ccc(-c2cc(Cl)c(Cl)c3[nH]c4c(c23)CN(C(=O)CNC(=O)CCCNc2cccc3c2C(=O)N(C2CCC(=O)NC2=O)C3=O)CC4)n1 (centres undefined) | – |
| > 50 µM | 13.9% | > 50 µM | – | O=C1CCC(N2C(=O)c3cccc(NCCOCCOCCOCC(=O)N4CCC(Cn5cc(-c6cc(Cl)c(Cl)c7[nH]c8c(c67)CN(C(=O)CO)CC8)cn5)CC4)c3C2=O)C(=O)N1 (centres undefined) | – |
| 12.7 µM | 54.4% | 25.3 µM | – | Cn1ccc(-c2cc(Cl)c(Cl)c3[nH]c4c(c23)CN(C(=O)CNC(=O)CCCCCC#Cc2cccc3c2CN(C2CCC(=O)NC2=O)C3=O)CC4)n1 (centres undefined) | – |
| 33.6 µM | 44.3% | > 50 µM | – | O=C1CCC(N2C(=O)c3cccc(NCCOCCOCC(=O)N4CCC(Cn5cc(-c6cc(Cl)c(Cl)c7[nH]c8c(c67)CN(C(=O)CO)CC8)cn5)CC4)c3C2=O)C(=O)N1 (centres undefined) | – |
| 12.8 µM | 56.1% | 30.8 µM | – | Cn1ccc(-c2cc(Cl)c(Cl)c3[nH]c4c(c23)CN(C(=O)CNC(=O)CCCC#Cc2cccc3c2C(=O)N(C2CCC(=O)NC2=O)C3=O)CC4)n1 (centres undefined) | – |
| 28.8 µM | 44.7% | > 50 µM | – | Cn1ccc(-c2cc(Cl)c(Cl)c3[nH]c4c(c23)CN(C(=O)CCCCCCC#Cc2cccc3c2CN(C2CCC(=O)NC2=O)C3=O)CC4)n1 (centres undefined) | – |
| 21.4 µM | 57.7% | > 50 µM | – | Cn1ccc(-c2cc(Cl)c(Cl)c3[nH]c4c(c23)CN(C(=O)CNC(=O)CCCCCC#Cc2cccc3c2C(=O)N(C2CCC(=O)NC2=O)C3=O)CC4)n1 (centres undefined) | – |
| 25.8 µM | 44.7% | > 50 µM | – | O=C1CCC(N2C(=O)c3cccc(NCCCCCCC(=O)N4CCC(Cn5cc(-c6cc(Cl)c(Cl)c7[nH]c8c(c67)CN(C(=O)CO)CC8)cn5)CC4)c3C2=O)C(=O)N1 (centres undefined) | – |
| > 50 µM | 21.9% | > 50 µM | – | Cn1ccc(-c2cc(Cl)c(Cl)c3[nH]c4c(c23)CN(C(=O)CNC(=O)CCCCC#Cc2ccc3c(c2)CN(C2CCC(=O)NC2=O)C3=O)CC4)n1 (centres undefined) | – |
| 8.1 µM | 61.5% | 16.1 µM | – | Cn1ccc(-c2cc(Cl)c(Cl)c3[nH]c4c(c23)CN(C(=O)CNC(=O)CCCCNc2cccc3c2C(=O)N(C2CCC(=O)NC2=O)C3=O)CC4)n1 (centres undefined) | – |
| 28.1 µM | 34.6% | > 50 µM | – | Cn1ccc(-c2cc(Cl)c(Cl)c3[nH]c4c(c23)CN(C(=O)CNC(=O)COCCOCCOCCNc2cccc3c2C(=O)N(C2CCC(=O)NC2=O)C3=O)CC4)n1 (centres undefined) | – |
| 20.5 µM | 57.7% | 39.8 µM | – | O=C1CCC(N2C(=O)c3cccc(NCCCCCC(=O)N4CCC(Cn5cc(-c6cc(Cl)c(Cl)c7[nH]c8c(c67)CN(C(=O)CO)CC8)cn5)CC4)c3C2=O)C(=O)N1 (centres undefined) | – |
| 12.5 µM | 59.3% | 26.7 µM | – | Cn1ccc(-c2cc(Cl)c(Cl)c3[nH]c4c(c23)CN(C(=O)CNC(=O)CCCCCNc2cccc3c2C(=O)N(C2CCC(=O)NC2=O)C3=O)CC4)n1 (centres undefined) | – |
| 37.1 µM | 30.4% | > 50 µM | – | Cn1ccc(-c2cc(Cl)c(Cl)c3[nH]c4c(c23)CN(C(=O)CNC(=O)CCCCCCCCNc2cccc3c2C(=O)N(C2CCC(=O)NC2=O)C3=O)CC4)n1 (centres undefined) | – |
| 28.4 µM | 45.1% | > 50 µM | – | Cn1ccc(-c2cc(Cl)c(Cl)c3[nH]c4c(c23)CN(C(=O)CCCCC#Cc2cccc3c2CN(C2CCC(=O)NC2=O)C3=O)CC4)n1 (centres undefined) | – |
| 16.3 µM | 55.1% | 28.3 µM | – | Cn1ccc(-c2cc(Cl)c(Cl)c3[nH]c4c(c23)CN(C(=O)CNC(=O)CCCCCCNc2cccc3c2C(=O)N(C2CCC(=O)NC2=O)C3=O)CC4)n1 (centres undefined) | – |
| 25.6 µM | 40.4% | 35.6 µM | – | Cn1ccc(-c2cc(Cl)c(Cl)c3[nH]c4c(c23)CN(C(=O)CCCC#Cc2cccc3c2CN(C2CCC(=O)NC2=O)C3=O)CC4)n1 (centres undefined) | – |
| 8.8 µM | 57.7% | 15.1 µM | – | Cn1ccc(-c2cc(Cl)c(Cl)c3[nH]c4c(c23)CN(C(=O)CNC(=O)CCCCC#Cc2cccc3c2CN(C2CCC(=O)NC2=O)C3=O)CC4)n1 (centres undefined) | – |
| 18.9 µM | 48.5% | > 50 µM | – | Cn1ccc(-c2cc(Cl)c(Cl)c3[nH]c4c(c23)CN(C(=O)CNC(=O)CCCCC#Cc2cccc3c2C(=O)N(C2CCC(=O)NC2=O)C3=O)CC4)n1 (centres undefined) | – |
| 34.2 µM | 38.2% | > 50 µM | – | Cn1ccc(-c2cc(Cl)c(Cl)c3[nH]c4c(c23)CN(C(=O)CNC(=O)COCCNc2cccc3c2C(=O)N(C2CCC(=O)NC2=O)C3=O)CC4)n1 (centres undefined) | – |
| 35.1 µM | 42% | > 50 µM | – | Cn1ccc(-c2cc(Cl)c(Cl)c3[nH]c4c(c23)CN(C(=O)CNC(=O)CCNc2cccc3c2C(=O)N(C2CCC(=O)NC2=O)C3=O)CC4)n1 (centres undefined) | – |
| 29.6 µM | 34.2% | > 50 µM | – | Cn1ccc(-c2cc(Cl)c(Cl)c3[nH]c4c(c23)CN(C(=O)CNC(=O)CCCCCCCNc2cccc3c2C(=O)N(C2CCC(=O)NC2=O)C3=O)CC4)n1 (centres undefined) | – |
| 27.4 µM | 46.8% | > 50 µM | – | Cn1ccc(-c2cc(Cl)c(Cl)c3[nH]c4c(c23)CN(C(=O)CNC(=O)COCCOCCNc2cccc3c2C(=O)N(C2CCC(=O)NC2=O)C3=O)CC4)n1 (centres undefined) | – |
| 38.8 µM | 20.4% | > 50 µM | – | Cn1ccc(-c2cc(Cl)c(Cl)c3[nH]c4c(c23)CN(C(=O)CNC(=O)CCCCCCCCCCNc2cccc3c2C(=O)N(C2CCC(=O)NC2=O)C3=O)CC4)n1 (centres undefined) | – |

From ChEMBL document CHEMBL6103619, “Discovery of a Novel CRBN-Recruiting cGAS PROTAC Degrader for the Treatment of Ulcerative Colitis” (J Med Chem, 2025)
